Assay results taken from the NIST ThermoML archive (doi:10.1016/j.jct.2009.04.009).
Numbers after ± are expanded uncertainties.

Conditions: Liquid

In the case of `CC(C)CCO` [3-methylbutan-1-ol], the “vapor or sublimation pressure” value (357.5 K, Recirculating Still) is reported as 15 ± 0.2 kPa, the “vapor or sublimation pressure” value (367.2 K, Recirculating Still) is reported as 23.5 ± 0.2 kPa and the “vapor or sublimation pressure” value (374.4 K, Recirculating Still) is reported as 32 ± 0.3 kPa. For the same compound, the “vapor or sublimation pressure” value (380.1 K, Recirculating Still) was 40.5 ± 0.4 kPa, the “vapor or sublimation pressure” value (384.8 K, Recirculating Still) was 49 ± 0.4 kPa and the “vapor or sublimation pressure” value (389.1 K, Recirculating Still) was 57.5 ± 0.5 kPa. The “vapor or sublimation pressure” value (392.8 K, Recirculating Still) was 66 ± 0.6 kPa, the “vapor or sublimation pressure” value (402 K, Recirculating Still) was 91.5 ± 0.7 kPa and the “vapor or sublimation pressure” value (407 K, Recirculating Still) was 108.5 ± 0.8 kPa. For the same compound, the “vapor or sublimation pressure” value (409.3 K, Recirculating Still) was 117 ± 0.9 kPa, the “vapor or sublimation pressure” value (411.4 K, Recirculating Still) was 125.5 ± 1 kPa and the “vapor or sublimation pressure” value (413.5 K, Recirculating Still) was 134 ± 1 kPa. The “vapor or sublimation pressure” value (415.4 K, Recirculating Still) was 142.5 ± 1.1 kPa, the “vapor or sublimation pressure” value (417.3 K, Recirculating Still) was 151 ± 1.1 kPa and the “vapor or sublimation pressure” value (419.2 K, Recirculating Still) was 159.5 ± 1.2 kPa. For the same compound, the “vapor or sublimation pressure” value (420.9 K, Recirculating Still) was 168 ± 1.3 kPa and the “vapor or sublimation pressure” value (422.4 K, Recirculating Still) was 176.5 ± 1.3 kPa.
In the case of `CC(C)CO` [2-methyl-1-propanol], the “vapor or sublimation pressure” value (336.9 K, Recirculating still) is reported as 15 ± 0.2 kPa, the “vapor or sublimation pressure” value (351.2 K, Recirculating still) is reported as 30 ± 0.3 kPa and the “vapor or sublimation pressure” value (357.7 K, Recirculating still) is reported as 40 ± 0.4 kPa. For the same compound, the “vapor or sublimation pressure” value (362.9 K, Recirculating still) was 50 ± 0.5 kPa, the “vapor or sublimation pressure” value (367.4 K, Recirculating still) was 60 ± 0.5 kPa and the “vapor or sublimation pressure” value (371.3 K, Recirculating still) was 70 ± 0.6 kPa. For the same compound, the “vapor or sublimation pressure” value (374.7 K, Recirculating still) was 80 ± 0.7 kPa, the “vapor or sublimation pressure” value (377.8 K, Recirculating still) was 90 ± 0.8 kPa and the “vapor or sublimation pressure” value (380.7 K, Recirculating still) was 100 ± 0.8 kPa. For the same compound, the “vapor or sublimation pressure” value (383.3 K, Recirculating still) was 110 ± 0.9 kPa, the “vapor or sublimation pressure” value (385.8 K, Recirculating still) was 120 ± 1 kPa and the “vapor or sublimation pressure” value (388 K, Recirculating still) was 130 ± 1.1 kPa. For the same compound, the “vapor or sublimation pressure” value (390.2 K, Recirculating still) was 140 ± 1.1 kPa and the “vapor or sublimation pressure” value (392.2 K, Recirculating still) was 150 ± 1.2 kPa.
